From patent US20120083476A1, “HETEROARYL-SUBSTITUTED SPIROCYCLIC DIAMINE UREA MODULATORS OF FATTY ACID AMIDE HYDROLASE” (Janssen Pharmaceutica NV, priority 2009, published 2012)

Legend:
CREAE mice = details: Baker 2001; cited from earlier work
rats [1] = details: WO 02/087569; cited from earlier work
rats [2] = details: WO 02/087569; cited from earlier work; remark: listed apart in the source
FAAH [3] = molecular target: T1, FAAH (Homo sapiens, UniProt O00519); test: Assay Method 1: human FAAH assay (3H-anandamide hydrolysis in cell homogenate); format: biochemical; parameters: expressed in transfected cells; host or cells: SK-N-MC cells stably transfected with human FAAH cDNA (G418 selection); alternatively T84 cell pellets; details: read-out: Assay 1 IC50
T1 sequence (O00519 1-579): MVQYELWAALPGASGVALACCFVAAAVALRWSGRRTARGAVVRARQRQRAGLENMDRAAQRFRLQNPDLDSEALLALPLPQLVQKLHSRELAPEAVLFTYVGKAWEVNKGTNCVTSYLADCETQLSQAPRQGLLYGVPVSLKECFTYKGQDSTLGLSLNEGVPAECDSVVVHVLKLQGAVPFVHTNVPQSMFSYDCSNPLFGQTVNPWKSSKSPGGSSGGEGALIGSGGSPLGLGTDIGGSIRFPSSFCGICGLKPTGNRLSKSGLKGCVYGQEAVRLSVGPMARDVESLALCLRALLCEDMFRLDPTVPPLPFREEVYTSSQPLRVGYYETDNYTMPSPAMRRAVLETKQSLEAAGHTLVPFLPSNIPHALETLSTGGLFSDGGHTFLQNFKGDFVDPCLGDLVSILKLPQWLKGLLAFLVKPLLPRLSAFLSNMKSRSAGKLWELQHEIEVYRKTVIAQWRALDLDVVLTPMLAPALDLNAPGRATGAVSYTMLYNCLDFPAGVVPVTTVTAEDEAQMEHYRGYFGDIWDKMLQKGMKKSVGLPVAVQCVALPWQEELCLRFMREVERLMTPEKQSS
In short: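 Homogenates of T84 cells or SK-N-MC cells stably transfected with human FAAH, in pH 9 Tris/EDTA buffer with 0.02% Triton X-100. Incubated 1 h at rt with compound and 80 nM (final) [3H-ethanolamine]-anandamide. Released 3H-ethanolamine separated on charcoal filters and counted by scintillation.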

Rat FAAH = molecular target: T2, Rat FAAH (Rattus norvegicus, UniProt P97612); test: Assay Method 2: rat FAAH assay (3H-anandamide hydrolysis in cell homogenate); format: biochemical; details: read-out: Assay 2 IC50
T2 construct: expressed in transfected cells; host or cells: SK-N-MC cells stably transfected with rat FAAH cDNA (G418 selection)
T2 sequence (P97612 1-579): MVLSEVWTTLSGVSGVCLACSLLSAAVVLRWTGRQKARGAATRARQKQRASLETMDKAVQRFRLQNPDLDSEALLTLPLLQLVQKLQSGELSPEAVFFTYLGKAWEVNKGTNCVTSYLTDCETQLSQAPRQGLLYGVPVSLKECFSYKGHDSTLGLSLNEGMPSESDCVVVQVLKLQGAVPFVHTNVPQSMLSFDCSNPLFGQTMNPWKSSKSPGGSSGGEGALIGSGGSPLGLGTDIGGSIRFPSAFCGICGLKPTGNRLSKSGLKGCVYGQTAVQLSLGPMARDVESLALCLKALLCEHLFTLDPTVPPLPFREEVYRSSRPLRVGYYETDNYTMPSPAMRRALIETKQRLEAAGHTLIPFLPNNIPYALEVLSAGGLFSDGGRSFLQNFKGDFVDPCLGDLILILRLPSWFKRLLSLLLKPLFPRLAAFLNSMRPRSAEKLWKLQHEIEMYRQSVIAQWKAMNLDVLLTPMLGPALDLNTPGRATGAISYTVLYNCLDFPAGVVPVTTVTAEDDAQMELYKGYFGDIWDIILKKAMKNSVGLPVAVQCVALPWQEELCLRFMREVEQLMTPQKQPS
In short: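 Homogenates of T84 cells or SK-N-MC cells stably transfected with rat FAAH, in pH 9 Tris/EDTA/glycerol/Triton buffer, incubated 1 h at room temperature with 3H-anandamide. Released labeled ethanolamine separated from substrate on activated charcoal and counted by scintillation; values averaged over runs.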

rats [4] = details: cited from earlier work
FAAH [5] = molecular target: T1, FAAH; details: WO 04/033652; cited from earlier work
rats [6] = details: WO 04/033652; cited from earlier work
rats [7] = details: rat; Kathuria 2003; cited from earlier work

IC50 (FAAH [3]) | IC50 (Rat FAAH) | SMILES | other results
– | – | CCCCCCCCCCCCCCCCS(=O)(=O)F [AM374] | spasticity in CREAE mice (CREAE mice): significantly reduce spasticity
– | – | Cc1nc(-c2ccccc2)c(-c2ccccc2)n1CCCCCCNC(=O)Oc1ccccc1F [BMS-1] | analgesic effect in Chung spinal nerve ligation model (rats [1]): analgesic effect; analgesic effect in Hargraves test of acute thermal nociception (rats [2]): analgesic effect
0.1 µM | 4 µM | O=C(Nc1cccnc1)N1CC2(CCN(Cc3cccc(Oc4ccccc4)c3)CC2)C1 [Example 119, 7-(3-Phenoxy-benzyl)-2,7-diaza-spiro[3.5]nonane-2-carboxylic acid pyridin-3-ylamide] | –
0.03 µM | 1.2 µM | O=C(Nc1cccnc1)N1CC2(CCN(Cc3cccc(Oc4ccccc4Cl)c3)CC2)C1 [Example 121, 7-[3-(2-Chloro-phenoxy)-benzyl]-2,7-diaza-spiro[3.5]nonane-2-carboxylic acid pyridin-3-ylamide] | –
0.05 µM | 1 µM | O=C(Nc1cccnc1)N1CC2(CCN(Cc3cccc(Oc4cccc(Br)c4)c3)CC2)C1 [Example 122, 7-[3-(3-Bromo-phenoxy)-benzyl]-2,7-diaza-spiro[3.5]nonane-2-carboxylic acid pyridin-3-ylamide] | –
0.2 µM | 0.03 µM | O=C(Nc1cccnc1)N1CC2(CCN(Cc3cccc(Oc4ccc(Br)cc4)c3)CC2)C1 [Example 123, 7-[3-(4-Bromo-phenoxy)-benzyl]-2,7-diaza-spiro[3.5]nonane-2-carboxylic acid pyridin-3-ylamide] | –
0.3 µM | 0.4 µM | O=C(Nc1cccnc1)N1CC2(CCN(Cc3cccc(Oc4ccc(F)c(F)c4)c3)CC2)C1 [Example 124, 7-[3-(3,4-Difluoro-phenoxy)-benzyl]-2,7-diaza-spiro[3.5]nonane-2-carboxylic acid pyridin-3-ylamide] | –
2.6 µM | 3 µM | O=C(Nc1cccnc1)N1CC2(CCN(Cc3cccc(Oc4ccc(OC(F)(F)F)cc4)c3)CC2)C1 [Example 125, 7-[3-(4-Trifluoromethoxy-phenoxy)-benzyl]-2,7-diaza-spiro[3.5]nonane-2-carboxylic acid pyridin-3-ylamide] | –
0.16 µM | 1 µM | O=C(Nc1cccnc1)N1CC2(CCN(Cc3cccc(Oc4ccc(C(F)(F)F)cc4)c3)CC2)C1 [Example 126, 7-[3-(4-Trifluoromethyl-phenoxy)-benzyl]-2,7-diaza-spiro[3.5]nonane-2-carboxylic acid pyridin-3-ylamide] | –
4 µM | 1.1 µM | N#Cc1ccc(Oc2cccc(CN3CCC4(CC3)CN(C(=O)Nc3cccnc3)C4)c2)cc1 [Example 127, 7-[3-(4-Cyano-phenoxy)-benzyl]-2,7-diaza-spiro[3.5]nonane-2-carboxylic acid pyridin-3-ylamide] | –
1.7 µM | 8 µM | O=C(Nc1cccnc1)N1CC2(CCN(Cc3cccc(Oc4ccc(S(=O)(=O)C(F)(F)F)cc4)c3)CC2)C1 [Example 129, 7-[3-(4-Trifluoromethanesulfonyl-phenoxy)-benzyl]-2,7-diaza-spiro[3.5]nonane-2-carboxylic acid pyridin-3-ylamide] | –
0.83 µM | 2.5 µM | O=C(Nc1cccnc1)N1CC2(CCN(Cc3cccc(Oc4ccc5ncccc5c4)c3)CC2)C1 [Example 130, 7-[3-(Quinolin-6-yloxy)-benzyl]-2,7-diaza-spiro[3.5]nonane-2-carboxylic acid pyridin-3-ylamide] | –
0.33 µM | 3 µM | O=C(Nc1cccnc1)N1CC2(CCN(Cc3cccc(C#Cc4ccccc4Cl)c3)CC2)C1 [Example 131, 7-[3-(2-Chloro-phenylethynyl)-benzyl]-2,7-diaza-spiro[3.5]nonane-2-carboxylic acid pyridin-3-ylamide] | –
– | – | O=C(CCCCCCc1ccccc1)c1ncc(-c2ccccn2)o1 [OL-135] | analgesia in hot plate test (rats [4]): analgesic activity; inhibition of FAAH (FAAH [5]): potent inhibitor; analgesic activity in tail emersion test (rats [6]): analgesic activity
– | – | NC(=O)c1cccc(-c2cccc(OC(=O)NC3CCCCC3)c2)c1 [URB-597] | analgesia in hot plate test (rats [4]): analgesic efficacy; analgesic efficacy in formalin test (rats [7]): analgesic efficacy
